Test results published in patent publication US20050228180A1, “Alpha, omega-dicarboximide derivatives as useful uro-selective a1a adrenoceptor blockers” (priority 2002, published 2005).
Counter-ions that a name gives are not always drawn.

How the values were obtained:
conscious beagle dogs = test: In vivo uroselectivity study: phenylephrine response on MAP and IUP; design: species or system dog; conditions: 3 μg/kg p.o.
Description: In order to assess the uroselectivity in vivo, the effects of these compounds were studied on mean arterial pressure (MAP) and intraurethral pressure (UP) in conscious beagle dogs as per the method of Brune et al. (Pharmacol., 1996, 53:356). Briefly, male dogs were instrumented for chronic continuous measurement of arterial blood pressure by implanting a telemetry transmitter (TL11M2-D70-PCT, Data Sci. International, St. Paul, Minn. USA) into the femoral artery, two weeks prior to the study. During the recovery period, the animal was acclimatized to stay in the sling restraint. On the day of testing, overnight fasted animal was placed in the sling restraint. A Swan-Ganz. Balloon tipped catheter was introduced into the urethra at the level of prostate and the balloon was inflated (Brune. et. al. 1996). After recording the base line readings, effect of 16 μg/kg, phenylephrine (i.v.) on MAP and IUP was recorded. The response of phenylephrine to MAP and […] were recorded at 0.5, 1, 2, 3, 4, 6, 9 and 24 hours after the oral administration of vehicle or the test drug. The changes in MAP were recorded on line using Dataquest Software (Data Sci. International, St. Paul, Minn. USA). The change in phenylephrine response on […] administration after the test drug administration was calculated as percent change of that of control values. Area under curve was calculated, and the ratio of the values for MAP and IUP was used for calculating the uroselectivity (Table III).

α1D adrenoceptor (aorta) = molecular target: T1, α1D adrenoceptor (aorta) (Rattus norvegicus, UniProt P23944); test: In vitro functional assay, isolated aorta, norepinephrine contraction; type: cell-based; conditions: read-out: α Adrenoceptor Subtype (pKB) α1D (converted)
T1 construct: Isolated tissues were mounted in organ bath containing Krebs Henseleit buffer; from tissue; host or cells: isolated rat aorta
T1 sequence (P23944 1-561): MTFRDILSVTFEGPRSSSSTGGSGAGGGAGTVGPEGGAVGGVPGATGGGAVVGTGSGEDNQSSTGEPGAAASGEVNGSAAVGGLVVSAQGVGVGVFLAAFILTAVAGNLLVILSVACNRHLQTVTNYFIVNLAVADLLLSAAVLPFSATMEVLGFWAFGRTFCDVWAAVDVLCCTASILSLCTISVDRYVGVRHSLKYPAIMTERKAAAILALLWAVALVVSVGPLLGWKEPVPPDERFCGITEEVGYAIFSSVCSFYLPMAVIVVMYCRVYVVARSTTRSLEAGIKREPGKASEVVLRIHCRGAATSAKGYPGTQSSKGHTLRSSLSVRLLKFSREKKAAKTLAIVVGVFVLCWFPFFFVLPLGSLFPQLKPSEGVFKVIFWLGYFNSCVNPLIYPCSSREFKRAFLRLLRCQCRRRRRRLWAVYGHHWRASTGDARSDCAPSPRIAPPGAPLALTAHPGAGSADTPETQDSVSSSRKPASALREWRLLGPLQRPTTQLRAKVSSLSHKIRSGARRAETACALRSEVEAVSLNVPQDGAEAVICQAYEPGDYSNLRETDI
Description: (§1) In order to study selectivity of action of these compounds towards different a-adrenoceptor subtypes, the ability of these compounds to antagonise (α1D) prostate (α1A) and spleen (α1B) was studied. Aorta and spleen tissues were isolated from urethane anaesthetized (1.5 g/kg) male wister rats. Isolated tissues were mounted in organ bath containing Krebs Henseleit buffer of the following composition (mM): NaCl 118; KCl 4.7; CaCl2 2.5; MgSO4 7H2O 1.2; NaHCO3 25; KH2PO4 1.2; glucose 11.5. Buffer was maintained at 37° C. and aereated with a mixture of 95% O2 and 5% CO2. A resting tension of 2 g (aorta) or 1 g (spleen and prostate) was applied to tissues. Contractile response was monitored using a force displacement transducer and recorded on chart recorders. Tissues were allowed to equilibrate for 2 hours. At the end of equilibration period, concentration response curves to norepinephrine (aorta) and phenylepinephrine (spleen and prostate) were obtained in the absence and presence of tested compound (at concentration of […]). Antagonist affinity was calculated and expressed as pKB values in Table II.

[1] = molecular target: T2, α1B adrenoceptor (spleen) (Rattus norvegicus, UniProt P15823); test: In vitro functional assay, isolated spleen, phenylepinephrine contraction; type: cell-based; conditions: read-out: α Adrenoceptor Subtype (pKB) α1B (converted)
T2 construct: Isolated tissues were mounted in organ bath containing Krebs Henseleit buffer; from tissue; host or cells: isolated rat spleen
T2 sequence (P15823 1-515): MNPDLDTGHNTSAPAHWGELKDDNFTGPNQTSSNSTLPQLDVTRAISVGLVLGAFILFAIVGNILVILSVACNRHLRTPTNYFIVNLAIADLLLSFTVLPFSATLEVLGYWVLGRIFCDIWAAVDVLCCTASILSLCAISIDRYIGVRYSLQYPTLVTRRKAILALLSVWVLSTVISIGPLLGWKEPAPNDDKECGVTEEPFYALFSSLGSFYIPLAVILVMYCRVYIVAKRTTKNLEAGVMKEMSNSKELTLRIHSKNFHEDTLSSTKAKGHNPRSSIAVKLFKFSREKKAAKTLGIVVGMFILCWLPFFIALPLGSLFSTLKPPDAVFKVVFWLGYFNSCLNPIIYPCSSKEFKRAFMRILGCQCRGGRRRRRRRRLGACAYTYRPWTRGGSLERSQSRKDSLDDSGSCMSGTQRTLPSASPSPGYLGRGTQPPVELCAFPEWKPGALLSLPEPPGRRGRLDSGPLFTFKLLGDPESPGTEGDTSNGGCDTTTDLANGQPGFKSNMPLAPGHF
Description: as §1

α1A adrenoceptor = molecular target: T3, α1A adrenoceptor (Rattus norvegicus, UniProt P43140); test: Radioligand binding, [3H] prazosin displacement, rat submaxillary membranes; conditions: for Ki: [3H] prazosin displacement, rat submaxillary membranes, read-out: Affinity (Ki) α1A (Rat Submaxillary); for α1B/α1A: ratio of binding affinities, rat liver / rat submaxillary
T3 construct: from tissue; host or cells: rat submaxillary gland membranes
T3 sequence (P43140 1-466): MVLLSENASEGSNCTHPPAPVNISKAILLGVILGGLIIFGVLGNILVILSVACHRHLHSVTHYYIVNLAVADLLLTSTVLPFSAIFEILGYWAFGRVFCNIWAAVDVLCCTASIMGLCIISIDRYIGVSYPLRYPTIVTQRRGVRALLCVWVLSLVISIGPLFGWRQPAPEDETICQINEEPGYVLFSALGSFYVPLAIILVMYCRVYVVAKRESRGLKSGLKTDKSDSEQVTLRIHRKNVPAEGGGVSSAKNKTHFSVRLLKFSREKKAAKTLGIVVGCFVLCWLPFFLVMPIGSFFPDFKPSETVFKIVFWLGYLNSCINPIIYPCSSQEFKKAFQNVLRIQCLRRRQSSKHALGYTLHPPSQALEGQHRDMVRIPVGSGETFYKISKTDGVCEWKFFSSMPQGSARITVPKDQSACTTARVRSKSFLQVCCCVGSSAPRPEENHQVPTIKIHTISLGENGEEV
Summary of the method: (§2)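 Displacement of [3H]prazosin measured by filtration and counting, with Ki from IC50 via Cheng–Prusoff and nonspecific binding set by 300 nM prazosin. Native rat submaxillary (α1A) or liver (α1B) membranes, 150-250 μg protein, 1 h at 24-25° C in Tris/EDTA pH 7.4.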

[2] = molecular target: T4, α1A adrenoceptor (prostate) (Rattus norvegicus, UniProt P43140); test: In vitro functional assay, isolated prostate, phenylepinephrine contraction; type: cell-based; conditions: for Selectivity α1B/α1A / Selectivity α1D/α1A: functional, from pKB; for Kb: rat prostate, phenylepinephrine, read-out: α Adrenoceptor Subtype (pKB) α1A (converted)
T4 construct: from tissue; host or cells: isolated prostate tissue
T4 sequence (P43140 1-466): T3 sequence (P43140 1-466)
Description: as §1

α1B adrenoceptor = molecular target: T5, α1B adrenoceptor (Rattus norvegicus, UniProt P15823); test: Radioligand binding, [3H] prazosin displacement, rat liver membranes; conditions: read-out: Affinity (Ki) α1B (Rat Liver)
T5 construct: from tissue; host or cells: rat liver membranes
T5 sequence (P15823 1-515): T2 sequence (P15823 1-515)
Summary of the method: as §2

[3] = percent change of phenylephrine response over 24 hours

| Kb (α1D adrenoceptor (aorta)) [nM] | Kb [1] [nM] | Ki (α1A adrenoceptor) [nM] | α1B/α1A (α1A adrenoceptor) | Selectivity α1B/α1A [2] | Selectivity α1D/α1A [2] | Kb [2] [nM] | Ki (α1B adrenoceptor) [nM] | Structure (SMILES) | melting point [°C] | Uroselectivity Ratio IUP/MAP (conscious beagle dogs) | Area Under Curve IUP (conscious beagle dogs; [3]) | Area Under Curve MAP (conscious beagle dogs; [3]) |
| --- | --- | --- | --- | --- | --- | --- | --- | --- | --- | --- | --- | --- |
|  |  |  |  |  |  |  |  | CC(=O)OC1C=CCC2C(=O)N(CCCN3CCN(c4ccccc4OC(C)C)CC3)C(=O)C12 (centres unmarked) (as salt: hydrochloride) [Compound No. 40, 2-[3-{4-(2-Isopropoxyphenyl)piperazin-1-yllpropyl]4-acetoxy-3a,4,7,7a-tetrahydro-1H-isoindole-1,3(2H)-dione hydrochloride] | 224 to 227 |  |  |  |
|  |  |  |  |  |  |  |  | CCOc1ccccc1OCCN[C@H](C)Cc1ccc(OC)c(S(N)(=O)=O)c1 (racemic) [Tamsulosin (SR), Tamsulosin, reference compound] |  | 1.47 | 592 | 868 |
| 1.58 | 11 | 0.24 | 142 | 18 | 2.6 | 0.603 | 34 | Cl.O=C1C2CCC(O)CC2C(=O)N1CCCN1CCN(c2ccccc2OCC(F)(F)F)CC1 (centres unmarked) [Compound No. 33, 2-[3-{4-(2-(2,2,2-Trifluoroethoxy)phenyl)piperazin-1-yl}propyl]-5-hydroxy-3a,4,5,6,7,7a-hexahydro-1H-isoindole-1,3(2H)-dione hydrochloride] |  |  |  |  |
| 0.741 | 12.6 | 0.5 | 100 | 7.4 | 0.43 | 1.7 | 50 | Cl.O=C1C2CC=CCC2C(=O)N1CCCN1CCN(c2ccccc2OC2CCCC2)CC1 (centres unmarked) [Compound No. 43, 2-[3-{4-(2-Cyclopentyloxyphenyl)piperazin-1-yl}propyl]-3a,4,7,7a-tetrahydro-1H-isoindole-1,3(2H)-dione hydrochloride] |  |  |  |  |
| 12 | 38 | 8.55 | 9 | 3.8 | 1.2 | 10 | 80 | Cl.O=C1CCCC(=O)N1CCCN1CCN(c2ccccc2O)CC1 [compound 01, 1-[4-(2-Hydroxyphenyl)piperazin-1-yl]-3-(2,6-dioxopiperidin-1-yl)propane hydrochloride] |  |  |  |  |
| 0.0316 | 1.29 | 0.17 | 159 | 7.07 | 0.17 | 0.182 | 27 | Cl.O=C1C2CC=CCC2C(=O)N1CCCN1CCN(c2ccccc2OCC(F)(F)F)CC1 (centres unmarked) [compound 02, 2-[3-{4-(2-(2,2,2-Trifluoroethoxy)phenyl)piperazin-1-yl}propyl]-3a, 4,7,7a-tetrahydro-1H-isoindole-1,3(2H)-dione hydrochloride] |  |  |  |  |
| 0.148 | 0.275 | 0.26 | 181 | 0.7 | 0.38 | 0.389 | 47 | O=C1CCCC(=O)N1CCCN1CCN(c2ccccc2OCC(F)(F)F)CC1 [compound 03] |  |  |  |  |
| 2.29 | 15.8 | 0.56 | 189 | 13 | 1.9 | 1.23 | 106 | CC(C)Oc1ccccc1N1CCN(CC(O)CN2C(=O)C3CC=CCC3C2=O)CC1.Cl (centres unmarked) [compound 07, 2-[3-{4-(2-Isopropoxyphenyl)piperazin-1-yl}-2-hydroxypropyl]-3a,4,7,7a-tetrahydro-1H-isoindole-1,3(2H)-dione hydrochloride] |  |  |  |  |
| 21.9 | 1.02 | 6.6 | 722 | 0.24 | 5.24 | 4.17 | 4770 | CC(C)Oc1ccccc1N1CC[N+]([O-])(CCCN2C(=O)C3CC=CCC3C2=O)CC1 (centres unmarked) [compound 08, 2-[3-{4-(2-Isopropoxyphenyl)piperazin-1-yl, 1-N-oxide}propyl]-3a,4,7,7a-tetrahydro-1H-isoindole-1,3(2H)-dione] |  |  |  |  |
| 100 | 23.4 | 1070 |  | 3.3 | 14 | 7.08 | > 1000 | CC(C)Oc1ccccc1[N+]1([O-])CC[N+]([O-])(CCCN2C(=O)C3CC=CCC3C2=O)CC1 (centres unmarked) [compound 09, 2-[3-{4-(2-Isopropoxyphenyl)piperazin-1-yl, 1,4-N,N-dioxide}propyl]-3a,4,7,7a-tetrahydro-1H-isoindole-1,3-(2H)-dione] |  |  |  |  |

| Structure (SMILES) | Kb (α1D adrenoceptor (aorta)) [nM] | Kb [1] [nM] | Ki (α1A adrenoceptor) [nM] | α1B/α1A (α1A adrenoceptor) | Selectivity α1B/α1A [2] | Selectivity α1D/α1A [2] | Kb [2] [nM] | Ki (α1B adrenoceptor) [nM] | melting point [°C] | Uroselectivity Ratio IUP/MAP (conscious beagle dogs) | Area Under Curve IUP (conscious beagle dogs; [3]) | Area Under Curve MAP (conscious beagle dogs; [3]) |
| --- | --- | --- | --- | --- | --- | --- | --- | --- | --- | --- | --- | --- |
| CC(=O)OC1C=CC(OC(C)=O)C2C(=O)N(CCCN3CCN(c4ccccc4OC(C)C)CC3)C(=O)C12.Cl (centres unmarked) [Compound No. 73, 2-[3-{4-(2-Isopropoxyphenyl)piperazin-1-yl}propyl]-4,7-diacetoxy-3a,4,7,7a-tetrahydro-1H-isoindole-1,3(2H)-dione hydrochloride] |  |  | 8.45 | 23 |  |  |  | 192 | 176 to 177 |  |  |  |
